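Dose response: 5 concentrations. Exposure: 48 h. Format: 96-well plates. Endpoint: linear interpolation; highest concentration if not reached. At the GI50, growth is halved.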 Active and inactive are the calls of the source. Rule as the data show it: active = GI50 up to about 1.1 µM and inactive = higher. Some results are limits rather than exact numbers.

What all share (experiment): DTP human tumour cell line panel, 48 h
For assay [1], the system named is OVCAR-3.
Assay [2] relates to CCRF-CEM.
Assay [3] relates to A498.
Assay [4] has as its system SF-295.
Assay [5] relates to NCI-H460.
Assay [6] concerns TK-10.
The test system of assay [7] is MOLT-4.
In assay [8] the test system is HCC 2998.
The test system of assay [9] is A549.
In assay [10] the test system is SN12C.
Assay [11] has as its system HCT-116.
The subject of assay [12] is NCI/ADR-RES.
For assay [13], the system named is OVCAR-8.
Assay [14] relates to SNB-75.
The test system of assay [15] is SK-MEL-2.
For assay [16], the system named is UACC-62.
Assay [17] concerns SNB-19.
Assay [18] concerns Hs-578T.
Assay [19] relates to ACHN.

`COc1cc(C2c3cc4c(cc3OC(N3CCCC3)C2C)OCO4)cc(OC)c1OC` (configuration not stated): the GI50 in [1] is 0.221 µM (active); in assay [2], 0.502 µM (active); in assay [3], 0.326 µM (active); in assay [4], 0.303 µM (active); in assay [5] it was 0.767 µM (active); in assay [6], 0.938 µM (active). Moreover, the 50% growth inhibitory concentration (GI50) in assay [7] was 1.08 µM (active); in assay [8], 1.34 µM (inactive); in [9] it was 0.989 µM (active); in assay [10], 0.757 µM (active); in [11], 0.481 µM (active); in assay [12], 0.316 µM (active). Besides, the GI50 in [13] was 0.832 µM (active); in assay [14] it was 0.443 µM (active); in assay [15], 0.394 µM (active); in [16], 0.509 µM (active); in [17], 1.21 µM (inactive); in [18] it was 0.445 µM (active). In addition, in assay [19], the GI50 is 1.47 µM (inactive).
Regarding `O=c1[nH]nc(-c2ccc([N+](=O)[O-])cc2)[nH]1`, the GI50 in [1], in assay [2], in [3], in [4], in [5] and in assay [6] was > 100 µM (inactive) each time. The GI50 in assay [7], in [8], in assay [9], in assay [10], in assay [11] and in [12] was > 100 µM (inactive) in each case. For the same compound, the GI50 in [13], in [14], in [15], in assay [16], in [17] and in assay [18] was > 100 µM (inactive) throughout. Further, in assay [19], the GI50 was > 100 µM (inactive).
With `Cc1ccc(NC(=O)CSc2nc(O)nc3[nH]cnc23)cc1`, the GI50 in [1] is > 100 µM (inactive); in [2] it was 27.7 µM (inactive); in [3], 28.2 µM (inactive); in assay [4] it was 62.7 µM (inactive); in assay [5], > 100 µM (inactive); in assay [6], > 100 µM (inactive). For the same compound, the GI50 in [7] was 58.7 µM (inactive); in assay [8] it was > 100 µM (inactive); in assay [9], > 100 µM (inactive); in assay [10] it was 30.5 µM (inactive); in assay [11] it was > 100 µM (inactive); in [12], 80.2 µM (inactive). The GI50 in [13] is > 100 µM (inactive); in [14], > 100 µM (inactive); in assay [15], > 100 µM (inactive); in [16], > 100 µM (inactive); in assay [17], 68.7 µM (inactive); in assay [18] it was 68.9 µM (inactive). Further, the GI50 in assay [19] was > 100 µM (inactive).
With `CCOC(=O)NNC(=O)C1CSC(c2ccccc2)N1C(C)=O` (configuration not stated), the GI50 in assay [1], in [2], in assay [3], in assay [4], in assay [5] and in assay [6] was > 100 µM (inactive) in each case. The GI50 in assay [7], in [8], in assay [9], in assay [10], in assay [11] and in [12] was > 100 µM (inactive) in each case. The GI50 in assay [13], in [14], in assay [15], in assay [16], in assay [17] and in assay [18] was > 100 µM (inactive) each time. Further, the GI50 in assay [19] is > 100 µM (inactive).
With `COc1cc(C(=O)O[C@@H]2[C@@H](OC(=O)c3cc(OC)c(OC)c(OC)c3)[C@@H](OC)O[C@@H]3CO[C@@H](c4ccccc4)O[C@@H]23)cc(OC)c1OC`, the GI50 in assay [1], in assay [2], in [3], in [4], in [5] and in [6] was > 100 µM (inactive) each time. For the same compound, the GI50 in assay [7], in assay [8], in assay [9], in assay [10], in assay [11] and in [12] was > 100 µM (inactive) throughout. Moreover, the GI50 in assay [13] was > 100 µM (inactive); in assay [14], 29.6 µM (inactive); in [15] it was > 100 µM (inactive); in assay [16] it was > 100 µM (inactive); in [17], > 100 µM (inactive); in [18] it was > 100 µM (inactive). In assay [19], the GI50 was > 100 µM (inactive).
Consider `CCC(C)NC(=S)N/N=C(\C)c1ccccn1` (configuration not stated), for which the GI50 in assay [1] was < 0.01 µM (active); in assay [2] it was < 0.01 µM (active); in assay [3] it was 0.102 µM (active); in assay [4], 0.215 µM (active); in assay [5] it was 0.15 µM (active); in assay [6], 2.87 µM (inactive). Moreover, the concentration for 50% growth inhibition (GI50) in assay [7] was < 0.01 µM (active); in assay [8], 0.447 µM (active); in assay [9], 0.0946 µM (active); in [10] it was 0.893 µM (active); in assay [11] it was < 0.01 µM (active); in assay [12], < 0.01 µM (active). Moreover, the GI50 in [13] was 0.126 µM (active); in assay [14], 0.452 µM (active); in [15] it was 1.27 µM (inactive); in [16], 0.0733 µM (active); in assay [17], 1.45 µM (inactive); in [18] it was 0.396 µM (active). Besides, the GI50 in assay [19] was < 0.01 µM (active).
`NCCCCNCCCN1CCOC1=O`: the GI50 was > 100 µM (inactive) in assay [1]; > 100 µM (inactive) in assay [2]; > 100 µM (inactive) in [3]; > 100 µM (inactive) in assay [4]; > 100 µM (inactive) in assay [5]; 70.8 µM (inactive) in assay [6]. For the same compound, the GI50 in assay [7], in assay [8], in assay [9], in assay [10], in assay [11] and in assay [12] was > 100 µM (inactive) in each case. Moreover, the GI50 in assay [13], in assay [14], in assay [15], in assay [16], in assay [17] and in assay [18] was > 100 µM (inactive) throughout. In addition, the GI50 in [19] was > 100 µM (inactive).
As for `CC(C)c1ccc2c(c1)/C(=C1/Nc3ccccc3C1=O)C(=O)N2`, the GI50 was 19 µM (inactive) in assay [1]; 27.3 µM (inactive) in assay [2]; 2.34 µM (inactive) in [3]; 14.8 µM (inactive) in assay [4]; 9.27 µM (inactive) in assay [5]; 5.01 µM (inactive) in assay [6]. The GI50 in assay [7] is 22.1 µM (inactive); in assay [8] it was 19.2 µM (inactive); in assay [9] it was 15.3 µM (inactive); in assay [10] it was 20.9 µM (inactive); in assay [11], 11.3 µM (inactive); in [12], 17 µM (inactive). In addition, the GI50 is 10.6 µM (inactive) in assay [13]; 3.4 µM (inactive) in [14]; 14.3 µM (inactive) in assay [15]; 14.9 µM (inactive) in assay [16]; 13 µM (inactive) in [17]; 7.64 µM (inactive) in [18]. For the same compound, the GI50 in assay [19] is 3.71 µM (inactive).
